Experimental findings from patent publication US20250368667A1, “USP1 INHIBITOR” (Shanghai Qilu Pharmaceutical Research and Development …, priority 2022, published 2025) are described below.

The IC50 is the concentration that gives 50% inhibition.

SMILES strings stand for the structures.

recombinant human His6-USP1/His6-UAF1 composite protein, sequence (O94782 whole entry): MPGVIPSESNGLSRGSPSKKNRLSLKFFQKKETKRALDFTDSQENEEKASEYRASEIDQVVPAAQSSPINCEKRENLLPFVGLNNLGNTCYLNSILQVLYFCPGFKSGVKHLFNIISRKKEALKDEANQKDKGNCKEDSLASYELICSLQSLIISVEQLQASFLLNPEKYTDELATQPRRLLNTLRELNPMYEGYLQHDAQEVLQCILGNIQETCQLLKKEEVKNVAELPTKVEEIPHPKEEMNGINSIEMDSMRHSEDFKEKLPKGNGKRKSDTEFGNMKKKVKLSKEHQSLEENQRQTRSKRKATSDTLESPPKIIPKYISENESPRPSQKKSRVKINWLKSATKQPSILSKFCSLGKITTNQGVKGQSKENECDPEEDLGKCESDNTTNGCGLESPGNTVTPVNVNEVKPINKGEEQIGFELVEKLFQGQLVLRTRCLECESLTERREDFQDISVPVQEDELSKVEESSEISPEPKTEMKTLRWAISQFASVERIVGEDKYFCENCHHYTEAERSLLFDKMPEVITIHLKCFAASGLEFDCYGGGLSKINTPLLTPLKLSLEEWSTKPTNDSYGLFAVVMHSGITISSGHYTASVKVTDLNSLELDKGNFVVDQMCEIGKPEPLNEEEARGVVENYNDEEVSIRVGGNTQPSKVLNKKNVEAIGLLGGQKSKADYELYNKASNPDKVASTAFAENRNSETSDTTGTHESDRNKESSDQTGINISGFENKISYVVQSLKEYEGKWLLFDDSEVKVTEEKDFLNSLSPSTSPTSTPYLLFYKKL
recombinant human His6-USP1/His6-UAF1 composite protein, sequence (Q8TAF3 whole entry partner): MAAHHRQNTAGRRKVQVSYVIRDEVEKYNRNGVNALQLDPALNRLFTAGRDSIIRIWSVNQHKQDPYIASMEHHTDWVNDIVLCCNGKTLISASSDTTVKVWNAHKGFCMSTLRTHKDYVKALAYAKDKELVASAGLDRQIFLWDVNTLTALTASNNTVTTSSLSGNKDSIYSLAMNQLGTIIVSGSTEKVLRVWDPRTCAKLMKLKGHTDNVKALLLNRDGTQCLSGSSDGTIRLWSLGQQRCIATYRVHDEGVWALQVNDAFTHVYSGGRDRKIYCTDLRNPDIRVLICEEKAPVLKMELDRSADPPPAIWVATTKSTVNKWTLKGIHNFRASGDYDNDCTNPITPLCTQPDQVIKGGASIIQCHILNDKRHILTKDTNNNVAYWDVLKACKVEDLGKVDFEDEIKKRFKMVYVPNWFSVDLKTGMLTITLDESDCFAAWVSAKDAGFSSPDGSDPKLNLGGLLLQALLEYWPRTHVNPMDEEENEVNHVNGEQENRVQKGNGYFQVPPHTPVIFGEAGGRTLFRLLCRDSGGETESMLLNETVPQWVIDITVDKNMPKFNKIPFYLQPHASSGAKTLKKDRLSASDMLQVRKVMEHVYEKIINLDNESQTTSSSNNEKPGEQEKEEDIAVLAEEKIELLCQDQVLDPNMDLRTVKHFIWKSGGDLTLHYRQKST

The experiment has as its target recombinant human His6-USP1/His6-UAF1 composite protein (Homo sapiens (Human), UniProt O94782). In words: USP1 enzyme activity detection (Ub-Rho fluorescence). It is filed as biochemical. The settings on record: USP1/UAF1, Ub-Rho substrate 300 nM, 1 hour pre-incubation; read-out: IC50 (enzymatic inhibition of USP1).
Description: USPli compounds were screened by USP1 enzyme activity detection experiment.
1.1 Experimental materials: recombinant human His6-USP1/His6-UAF1 composite protein. (R&D, catalog number E-568-050): Ubiquitin rhodamine 110 (Ub-Rho) (R&D, catalog number U-555-050); Fluorescent 384-well plate (Perkin Elmer, Art. No. 6007279).
1.2 Test sample: Compounds of table 3 in this application, whose structural formulae and preparation methods are shown in the above examples.
Using Equation (I) to fit data in Excel to obtain the inhibition value;
[formula] • wherein, the maximum signal value represents the luminous signal intensity of the positive control hole without adding the compound of the application; the minimum signal value represents the luminous signal intensity of the negative control hole without enzyme; and the target signal value represents the luminous signal intensity of the Test samples; and • fitting the data in XL-Fit with Equation (II) to obtain IC50 value:
[formula] • wherein Y is the inhibition rate, X is the concentration of the compound; Bottom is the lowest inhibition rate; Top is the highest inhibition rate; and HillSlope is the slope.
Regarding `COc1ncnc(C2CC2)c1-c1ncc2c3cc(C#N)ccc3n(Cc3ccc(-c4nc(C(F)(F)F)cn4C(C)C)cc3)c2n1` [Compound 12], the concentration for half-maximal inhibition (IC50) was found to be 58.3 nM.
For `COc1ncnc(C2CC2)c1-c1ncc2c3ccc(P4(=O)CCCC4)cc3n(Cc3ccc(-c4nc(C(F)(F)F)cn4C(C)C)c(F)c3)c2n1` [Compound 141] the value was 4 nM; for `COc1ncnc(C2CC2)c1-c1ncc2c3ccc(C(C)(C)O)cc3n(Cc3ccc(-c4nc(C(F)(F)F)cn4C)cc3)c2n1` [Compound 38], 12.1 nM; for `COc1ncnc(C2CC2)c1-c1ncc2c3ccccc3n(Cc3ccc(-n4nc(C)cc4C(F)(F)F)cc3)c2n1` [Compound 24], 35.5 nM.
To `COc1ncnc(C2CC2)c1-c1ncc2c3ccc(P4(=O)CCCC4)cc3n(Cc3ccc(-c4nc(C(F)(F)F)c5n4CCC5)cc3)c2n1` [Compound 142] belongs 6.2 nM.
For `COc1ncnc(C2CC2)c1-c1ncc2c3ccc(N4CC(O)C4)nc3n(Cc3ccc4c(c3)CCCn3cc(C(F)(F)F)nc3-4)c2n1` [Compound 136] the value was 1.34 nM.
As for `COc1ncnc(C2CC2)c1-c1ncc2c3cc(C(C)(C)O)ccc3n(Cc3ccc(-c4nc(C(F)(F)F)cn4C)cc3)c2n1` [Compound 34], the concentration for half-maximal inhibition (IC50) was determined as 62 nM.
For `COc1ncnc(C2CC2)c1-c1ncc2c3ccncc3n(Cc3ccc4c(ccn5cc(C(F)(F)F)nc45)c3)c2n1` [Compound 67], the IC50 worked out at 36.1 nM.
`COc1ncnc(C2CC2)c1-c1ncc2c3ccc(C#N)cc3n(Cc3ccc(-c4nc(C(F)(F)F)c(C5CC5)n4C)cc3)c2n1` [Compound 164]: the IC50 stood at 12 nM.
As to `COc1ncnc(C2CC2)c1-c1ncc2c3ccc(CS(C)(=O)=O)cc3n(Cc3ccc4c(c3)CCCn3cc(C(F)(F)F)nc3-4)c2n1` [Compound 83], the IC50 turned out to be 4.62 nM.
Regarding `COc1ncnc(C2CC2)c1-c1ncc2c3ccc(S(N)(=O)=O)cc3n(Cc3ccc(-c4nc(C(F)(F)F)cn4C)cc3)c2n1` [Compound 30], the IC50 turned out to be 5.71 nM.
Take `COc1ncnc(C2CC2)c1-c1ncc2c3ccc(C(N)=O)cc3n(Cc3ccc(-c4nc(C(F)(F)F)cn4C)cc3)c2n1` [Compound 28]: the concentration for half-maximal inhibition (IC50) was determined as 5.95 nM.
On to `CCn1cc(C(F)(F)F)nc1-c1ccc(Cn2c3ccccc3c3cnc(-c4c(OC)ncnc4C4CC4)nc32)cc1` [Compound 9, 2-(4-cyclopropyl-6-methoxypyrimidin-5-yl)-9-(4-(1-ethyl-4-(trifluoromethyl)-1H-imidazol-2-yl)benzyl)-9H-pyrimido[4,5-b]indole], for which the 50% inhibitory concentration (IC50) was found to be 4.07 nM.
To `COc1ncnc(C2CC2)c1-c1ncc2c3cn(C)nc3n(Cc3ccc(-c4nc(C(F)(F)F)sc4C)cc3)c2n1` [Compound 131] belongs 4.68 nM; to `COc1ncnc(C2CC2)c1-c1ncc2c3ccc(N(C)S(C)(=O)=O)cc3n(Cc3ccc(-c4nc(C(F)(F)F)cn4C)cc3)c2n1` [Compound 82], 4.45 nM; to `COc1ncnc(C2CC2)c1-c1ncc2c3ccccc3n([C@H](C)c3ccc(-c4nc(C(F)(F)F)cn4C(C)C)cc3)c2n1` [Compound 13-P2], 5 nM.
To `COc1ncnc(C2CC2)c1-c1ncc2c3cc(C(F)(F)F)ccc3n(Cc3ccc(-c4nc(C(F)(F)F)cn4C(C)C)cc3)c2n1` [Compound 22] belongs 135 nM; to `COc1ncnc(C2CC2)c1-c1ncc2c3ccncc3n(Cc3ccc(-c4nc(C(F)(F)F)c(C)n4C)cc3)c2n1` [Compound 151], 1 nM.
As for `CN1CCc2cccc(-c3ncc4c5ccncc5n(Cc5ccc(-c6nc(C(F)(F)F)cn6C)cc5)c4n3)c21` [Compound 84], the 50% inhibitory concentration (IC50) was found to be 59 nM.
Take `COc1ncnc(C2CC2)c1-c1ncc2c3ccc(C#N)cc3n(Cc3ccc(-c4nc(C(F)(F)F)c5cnccn45)cc3)c2n1` [Compound 129]: the half-maximal inhibitory concentration (IC50) was 36 nM.
Consider `CCOc1cc(C(F)(F)F)nn1-c1ccc(Cn2c3ccccc3c3cnc(-c4c(OC)ncnc4C4CC4)nc32)cc1` [Compound 10, 2-(4-cyclopropyl-6-methoxypyrimidin-5-yl)-9-(4-(5-ethoxy-3-(trifluoromethyl)-1H-pyrazol-1-yl)benzyl)-9H-pyrimido[4,5-b]indole], for which the IC50 amounted to 17.8 nM.
To `COc1ccc2c3cnc(-c4c(OC)ncnc4C4CC4)nc3n(Cc3ccc(-c4nc(C(F)(F)F)cn4C(C)C)cc3)c2c1` [Compound 7, 2-(4-cyclopropyl-6-methoxypyrimidin-5-yl)-9-(4-(1-isopropyl-4-(trifluoromethyl)-1H-imidazo 1-2-yl)benzyl)-7-methoxy-9H-pyrimido[4,5-b]indole] belongs 5.81 nM; to `COc1ncnc(C2CC2)c1-c1ncc2c3ccc(P4(=O)CCCC4)cc3n(Cc3ccc(-c4nc(C(F)(F)F)cn4C(C)C)cc3)c2n1` [Compound 109], 11.9 nM.
Regarding `COc1ncnc(C2CC2)c1-c1ncc2c3c(n(Cc4ccc(-c5nc(C(F)(F)F)cn5C)cc4)c2n1)CCC3` [Compound 31], the IC50 was found to be 4.85 nM.
For `CC(C)c1ccccc1-c1ncc2c3ccncc3n(Cc3ccc(-c4nc(C(F)(F)F)cn4C)cc3)c2n1` [Compound 79] the value was 2.04 nM; for `COc1ncnc(C2CC2)c1-c1ncc2c3sncc3n(Cc3ccc(-c4nc(C(F)(F)F)cn4C)cc3)c2n1` [Compound 60], 5.34 nM.
On to `COc1ncnc(C2CC2)c1-c1ncc2c3ccccc3n(Cc3ccc(-n4nc(C(F)(F)F)cc4C)cc3)c2n1` [Compound 17], for which the IC50 is 9.28 nM.
For `COc1ncnc(C2CC2)c1-c1ncc2c3cc(F)cnc3n(Cc3ccc(-c4nc(C(F)(F)F)cn4C)cc3)c2n1` [Compound 117] the value was 3.54 nM.
For `COc1ncnc(C2CC2)c1-c1ncc2c3ccncc3n(Cc3ccc4c(c3)OCCn3cc(C(F)(F)F)nc3-4)c2n1` [Compound 76] the value was 25.3 nM; for `CCC(c1ccc(-c2nc(C(F)(F)F)cn2C(C)C)cc1)n1c2ccccc2c2cnc(-c3c(OC)ncnc3C3CC3)nc21` (stereo not drawn) [Compound 23], 11.7 nM.
For `COc1ncnc(C2CC2)c1-c1ncc2c3cccnc3n(Cc3ccc4c(c3)CCCn3cc(C(F)(F)F)nc3-4)c2n1` [Compound 63] the value was 2.74 nM.
As for `COc1ncnc(C2CC2)c1-c1ncc2c3ccncc3n(Cc3ccc(-c4nc(C(F)(F)F)c(Br)n4C)cc3)c2n1` [Compound 152], the IC50 amounted to 11 nM.
To `COc1ncnc(C2CC2)c1-c1ncc2c3cnn(C)c3n(Cc3ccc(-c4nc(C(F)(F)F)cn4C(C)C)cc3)c2n1` [Compound 106] belongs 4.56 nM; to `COc1ncnc(C2CC2)c1-c1ncc2c3ccc(NCCO)nc3n(Cc3ccc4c(c3)CCCn3cc(C(F)(F)F)nc3-4)c2n1` [Compound 97], 2.1 nM; to `COc1ncnc(C2CC2)c1-c1ncc2c3cn(C)nc3n(Cc3ccc4c(c3)CCCCn3cc(C(F)(F)F)nc3-4)c2n1` [Compound 138], 1.8 nM.
With `COc1ncnc(C2CC2)c1-c1ncc2c(n1)n(Cc1ccc(-c3nc(C(F)(F)F)cn3C(C)C)cc1)c1nccn21` [Compound 32], the IC50 was determined as 19.1 nM.
For `COc1ncnc(C2CC2)c1-c1ncc2c3ccc(C(F)(F)F)cc3n(Cc3ccc(-c4nc(C(F)(F)F)cn4C)cc3)c2n1` [Compound 41] the value was 35.2 nM; for `COc1ncnc(C2CC2)c1-c1ncc2c3cn(C)nc3n(Cc3ccc(-c4nc(C(F)(F)F)c5ccccn45)cc3)c2n1` [Compound 156], 3.5 nM; for `COc1ncnc(C2CC2)c1-c1ncc2c3ccc(C)nc3n(Cc3ccc4c(c3)CCCn3cc(C(F)(F)F)nc3-4)c2n1` [Compound 128], 4.8 nM.
